Measured values from ChEMBL document CHEMBL4476867, “Hydroxy formamide derivatives and their use” (2016).

How the values were obtained:
[1] = biological target: T1, Bone morphogenetic protein 1 (Homo sapiens, UniProt P13497); test: Inhibition of C-terminal FLAG-6x-His epitope tagged and N-terminal human RAGE signal sequence tagged human BMP1 (23 to 721 amino acids) expressed in CHO-E1 cells pre-incubated for 10 mins before promyostatin peptide substrate addition and measured after 60 mins using 0.5 nM BMP1 by FRET based assay; type: cell-based
T1 sequence (P13497 whole entry): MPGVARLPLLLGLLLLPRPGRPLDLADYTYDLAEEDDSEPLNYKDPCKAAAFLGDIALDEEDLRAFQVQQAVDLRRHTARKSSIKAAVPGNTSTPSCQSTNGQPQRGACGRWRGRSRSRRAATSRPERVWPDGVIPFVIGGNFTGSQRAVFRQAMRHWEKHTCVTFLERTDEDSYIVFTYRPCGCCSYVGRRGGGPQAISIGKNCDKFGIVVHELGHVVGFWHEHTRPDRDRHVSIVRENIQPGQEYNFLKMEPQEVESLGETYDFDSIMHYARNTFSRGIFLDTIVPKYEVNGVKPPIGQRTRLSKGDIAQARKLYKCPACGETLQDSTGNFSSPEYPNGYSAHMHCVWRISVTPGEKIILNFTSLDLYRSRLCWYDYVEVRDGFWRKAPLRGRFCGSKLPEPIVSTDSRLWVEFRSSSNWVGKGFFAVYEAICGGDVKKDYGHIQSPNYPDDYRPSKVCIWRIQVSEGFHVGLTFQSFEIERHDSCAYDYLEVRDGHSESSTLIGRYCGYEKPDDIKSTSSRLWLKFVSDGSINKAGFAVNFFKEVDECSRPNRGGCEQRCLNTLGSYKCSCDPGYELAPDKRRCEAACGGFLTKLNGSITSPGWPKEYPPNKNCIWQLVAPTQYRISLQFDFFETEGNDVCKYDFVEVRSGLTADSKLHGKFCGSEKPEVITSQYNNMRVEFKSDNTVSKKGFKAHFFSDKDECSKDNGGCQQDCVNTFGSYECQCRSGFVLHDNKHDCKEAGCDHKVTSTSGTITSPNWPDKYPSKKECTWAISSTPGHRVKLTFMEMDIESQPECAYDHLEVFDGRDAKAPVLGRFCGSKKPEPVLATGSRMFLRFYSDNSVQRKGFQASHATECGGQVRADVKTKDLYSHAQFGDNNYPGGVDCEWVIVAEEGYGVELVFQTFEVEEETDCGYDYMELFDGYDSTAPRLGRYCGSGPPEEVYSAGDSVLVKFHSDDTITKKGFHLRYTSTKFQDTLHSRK

[2] = biological target: T1, Bone morphogenetic protein 1; test: Inhibition of C-terminal FLAG-6x-His epitope tagged and N-terminal human RAGE signal sequence tagged human BMP1 (23 to 721 amino acids) expressed in CHO-E1 cells pre-incubated for 10 mins before promyostatin peptide substrate addition and measured after 30 mins using 50 nM BMP1 by FRET based assay; type: cell-based
Tolloid-like protein 1 = Tolloid-like protein 1 (Homo sapiens, UniProt O43897, I156V/N221S/V284A); test: Inhibition of recombinant human TLL1 I156V/N221S/V284A mutant expressed in CHOE1A cells pre-incubated for 10 mins before promyostatin peptide substrate addition and measured after 60 mins by FRET based assay; type: cell-based
Sequence of Tolloid-like protein 1 (O43897 148-1013 I156V/N221S/V284A limits assumed): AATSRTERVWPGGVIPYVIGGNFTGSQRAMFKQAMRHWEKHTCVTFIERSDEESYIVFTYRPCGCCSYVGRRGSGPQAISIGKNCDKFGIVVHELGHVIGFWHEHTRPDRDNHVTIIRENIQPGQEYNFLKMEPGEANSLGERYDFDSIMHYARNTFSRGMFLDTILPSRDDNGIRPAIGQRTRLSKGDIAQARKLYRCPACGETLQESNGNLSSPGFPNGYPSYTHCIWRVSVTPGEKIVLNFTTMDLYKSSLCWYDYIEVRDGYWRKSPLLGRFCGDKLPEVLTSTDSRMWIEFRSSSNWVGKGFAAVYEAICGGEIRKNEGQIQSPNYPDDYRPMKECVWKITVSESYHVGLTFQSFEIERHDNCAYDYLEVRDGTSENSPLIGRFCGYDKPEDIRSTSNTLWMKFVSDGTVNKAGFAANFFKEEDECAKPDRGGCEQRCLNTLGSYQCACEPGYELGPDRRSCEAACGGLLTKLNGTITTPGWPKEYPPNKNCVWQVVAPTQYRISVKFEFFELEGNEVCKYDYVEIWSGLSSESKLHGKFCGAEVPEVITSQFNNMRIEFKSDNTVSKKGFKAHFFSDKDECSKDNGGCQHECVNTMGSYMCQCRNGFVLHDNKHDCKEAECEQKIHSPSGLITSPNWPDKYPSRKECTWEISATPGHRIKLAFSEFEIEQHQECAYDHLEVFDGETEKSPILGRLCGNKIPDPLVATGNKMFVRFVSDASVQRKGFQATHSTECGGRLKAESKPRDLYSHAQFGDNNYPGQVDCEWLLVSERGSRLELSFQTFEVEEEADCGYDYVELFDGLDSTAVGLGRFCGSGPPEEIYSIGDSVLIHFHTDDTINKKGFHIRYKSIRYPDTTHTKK

Tolloid-like protein 2 = biological target: T2, Tolloid-like protein 2 (Homo sapiens, UniProt Q9Y6L7); test: Inhibition of C-terminal Avi-6x-His epitope tagged and N-terminal human RAGE signal sequence tagged recombinant human TLL2 (26 to 1015 amino acids) expressed in CHOE1A cells incubated for 60 mins with promyostatin peptide substrate by FRET based assay; type: cell-based
T2 sequence (Q9Y6L7 whole entry): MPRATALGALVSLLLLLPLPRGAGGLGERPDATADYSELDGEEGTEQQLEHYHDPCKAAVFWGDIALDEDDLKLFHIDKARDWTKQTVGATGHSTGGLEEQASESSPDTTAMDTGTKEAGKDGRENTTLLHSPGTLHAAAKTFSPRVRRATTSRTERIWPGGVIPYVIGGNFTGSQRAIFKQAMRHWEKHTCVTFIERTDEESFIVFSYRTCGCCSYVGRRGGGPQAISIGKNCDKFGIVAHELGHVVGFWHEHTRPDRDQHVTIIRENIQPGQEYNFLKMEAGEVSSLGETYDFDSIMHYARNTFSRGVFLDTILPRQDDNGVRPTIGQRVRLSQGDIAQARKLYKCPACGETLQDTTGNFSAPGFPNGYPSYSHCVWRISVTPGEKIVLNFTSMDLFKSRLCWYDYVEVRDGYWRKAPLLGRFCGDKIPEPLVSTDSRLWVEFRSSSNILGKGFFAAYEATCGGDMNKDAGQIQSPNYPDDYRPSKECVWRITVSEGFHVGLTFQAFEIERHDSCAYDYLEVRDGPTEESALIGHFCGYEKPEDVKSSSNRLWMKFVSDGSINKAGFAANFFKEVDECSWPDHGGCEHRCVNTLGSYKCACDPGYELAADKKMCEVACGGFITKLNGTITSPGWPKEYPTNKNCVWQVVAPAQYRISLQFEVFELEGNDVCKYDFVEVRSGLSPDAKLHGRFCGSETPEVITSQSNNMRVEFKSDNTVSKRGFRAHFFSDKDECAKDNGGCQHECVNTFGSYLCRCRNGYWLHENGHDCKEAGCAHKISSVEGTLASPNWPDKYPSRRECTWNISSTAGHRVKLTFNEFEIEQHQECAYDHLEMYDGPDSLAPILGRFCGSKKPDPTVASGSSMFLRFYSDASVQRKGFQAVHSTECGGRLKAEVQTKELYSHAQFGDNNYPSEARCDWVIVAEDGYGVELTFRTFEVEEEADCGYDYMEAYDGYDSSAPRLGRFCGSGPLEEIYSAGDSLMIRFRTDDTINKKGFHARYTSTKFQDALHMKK

[3] = Reduction in PICP levels in human cardiac fibroblasts incubated for 24 to 48 hrs by ELISA; type: functional
Method in brief: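 Procollagen I C-terminal propeptide in the culture medium was quantified using a Quidel ELISA. The cells were human cardiac fibroblasts of passage 6 or below, seeded at 10,000 to 15,000 cells per well in 96-well plates and treated the next day in ficoll crowding EMEM with 100 μM ascorbic acid and under 0.3% DMSO. Treatment lasted 24 to 48 hr at 37° C. For IC50, levels normalized to untreated controls were fitted to a log(inhibitor)-response equation in GraphPad Prism.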

Structure (SMILES)	IC50 [1]	IC50 [2]	IC50 (Tolloid-like protein 1)	IC50 (Tolloid-like protein 2)	IC50 [3]
CCCCC[C@H](CN(O)C=O)C(=O)NCNC(=O)c1ccc(-c2ccc(C(=O)O)cc2)o1	< 126 nM	< 200 nM	< 398 nM	< 794 nM	< 3980 nM
CCCCC[C@H](CN(O)C=O)C(=O)NCNC(=O)c1ccc(-c2cccc(C(=O)O)c2)o1	< 126 nM	< 200 nM	< 398 nM	< 794 nM	< 3980 nM
CCCCC[C@@H](C(=O)NCNC(=O)c1ccc(-c2cc(OCC)cc(C(=O)NCC[N+](C)(C)C)c2)o1)[C@@H](CC)N(O)C=O	< 126 nM	< 200 nM	< 398 nM	< 794 nM	< 3980 nM
CCCCC[C@@H](C(=O)NCNC(=O)c1ccc(-c2cccc(C(C)(C)C(=O)O)c2)o1)[C@@H](CC)N(O)C=O	< 126 nM	< 200 nM	< 398 nM	< 794 nM	< 3980 nM
CCCCC[C@@H](C(=O)NCNC(=O)c1ccc(-c2cc(OCC)cc(C(F)(F)C(=O)O)c2)o1)[C@@H](CC)N(O)C=O	< 126 nM	< 200 nM	< 398 nM	< 794 nM	< 3980 nM
CCCCC[C@@H](C(=O)NCNC(=O)c1ccc(-c2cc(OCC)cc(P(=O)(OC)OC)c2)o1)[C@@H](CC)N(O)C=O	< 126 nM	< 200 nM	< 398 nM	< 794 nM	< 3980 nM
CCCCC[C@@H](C(=O)NCNC(=O)c1ccc(-c2cccc(C(=O)N[C@@H](CC(=O)O)C(=O)O)c2)o1)[C@@H](CC)N(O)C=O	< 126 nM	< 200 nM	< 398 nM	< 794 nM	< 3980 nM
CCCCC[C@@H](C(=O)NCNC(=O)c1ccc(-c2ccc(F)c(CC(=O)O)c2)o1)[C@@H](CC)N(O)C=O	< 126 nM	< 200 nM	< 398 nM	< 794 nM	< 3980 nM
CCCCC[C@H](CN(O)C=O)C(=O)NCNC(=O)c1ccc(-c2cccc(CC(=O)O)c2)o1	< 126 nM	< 200 nM	< 398 nM	< 794 nM	< 3980 nM
CCCCC[C@H](CN(O)C=O)C(=O)NCNC(=O)c1ccc(-c2ccc(F)c(C(=O)O)c2)o1	< 126 nM	< 200 nM	< 398 nM	< 794 nM	< 3980 nM
CCCCC[C@H](CN(O)C=O)C(=O)NCNC(=O)c1ccc(-c2ccc(F)c(C(=O)OC)c2)o1	< 126 nM	< 200 nM	< 398 nM	< 794 nM	< 3980 nM
CCCCC[C@H](CN(O)C=O)C(=O)NCNC(=O)c1ccc(-c2ccc(F)c(C(=O)O)c2F)o1	< 126 nM	< 200 nM	< 398 nM	< 794 nM	< 3980 nM
CCCCC[C@H](CN(O)C=O)C(=O)NCNC(=O)c1ccc(-c2cc(OC)ccc2OC)o1	< 126 nM	< 200 nM	< 398 nM	< 794 nM	< 3980 nM
